Bridge positions count the residues as written; N and C are the ends. Square brackets hold non-standard residues; d marks the D form. Ends that are not written are not given here. hCys = N[C@@H](CCS)C(=O)O; Orn = NCCC[C@H](N)C(=O)O
What was measured:
[1] = test system: BaF3 cells stably expressing FGFR (avian); test: Cell proliferation-promoting effect on BaF3 cells stably expressing avian FGFR; assay type: cell-based; settings: BaF3 with avian FGFR; viable cells at the addition concentration (0.001 to 10 nmol/L) with largest number; 2 nights
Experimental: (§1) The FGFR phosphorylation ability of the cyclic peptide complex was evaluated using the BaF3 cell proliferation-promoting effect in which FGFR was stably expressed.
(§2) BaF3 cells stably expressing FGFR were established by introducing a vector (human: Gene Copocia, EX-Y2820-M67, bovine: sequence of Accession No. A4IFL5 was introduced into pCDNA3.1/Hygro(+) Mammalian Expression Vector (Thermo, V87020), porcine: sequence of Accession No. A0A8DIE4H1 was introduced into pCDNA3.1/Hygro(+) Mammalian Expression Vector (Thermo, V87020), and avian: sequence of Accession No. P21804 was introduced into pCDNA3.1/Hygro(+) Mammalian Expression Vector (Thermo, V87020)) into which FGFR gene had been incorporated, into BaF3 cells using NucleoFector (Lonza) and performing drug selection of cells into which the FGFR gene had been introduced using hygromycin.
(§3) The evaluation of the proliferation-promoting effect of BaF3 cells in which FGFR is stably expressed was performed by the following method. First, RPMI-1640 with L-Glutamine and Phenol Red (FUJIFILM Wako Pure Chemical Corporation, 189-02025) and Fetal Bovine Serum (Thermo, 10270-106) were mixed at a volume ratio of 9:1, and then heparin (STEM CELL, 07980) was added thereto such that the final concentration thereof was 8 μg/mL, thereby preparing a culture medium for evaluation (hereinafter, described as RPMI (10% FBS) medium). Next, the BaF3 cells in which FGFR had been stably expressed were washed twice with RPMI (10% FBS) culture medium, suspended in RPMI (10% FBS) culture medium in which the cyclic peptide complex had been dissolved to a final concentration of 0.001 to 10 nmol/L, and seeded in a 384-well plate. In this case, a condition in which the cyclic peptide complex was not added as a negative control was prepared. After culturing at 37° C. (5% CO2) for 2 nights, Hoechst 33342, Trihydrochloride, Trihydrate—10 mg/mL Solution in Water (Thermo, H3570), -Cellstain (registered trademark)-Calcein-AM solution (1 mg/mL DMSO solution) (DOJINDO, C396), and -Cellstain (registered trademark)-PI solution (DOJINDO, P378) were each added to RPMI (10% FBS) culture medium in a volume amount of 1/1,000 at the final concentration, and live/dead staining of the cells were performed by allowing to stand at room temperature for 1 hour, and imaging was performed using a confocal microscope (Yokogawa Electric Corporation, CQ1). The number of viable cells was calculated from the imaging data, and the cell proliferation-promoting effect was evaluated according to the following evaluation criteria. The number of viable cells in the negative control was about 20 cells/well. The evaluation result preferably satisfies the evaluation criteria A, B, or C. […]

[2] = test system: BaF3 cells stably expressing FGFR (porcine); test: Cell proliferation-promoting effect on BaF3 cells stably expressing porcine FGFR; assay type: cell-based; settings: BaF3 with porcine FGFR; viable cells at the addition concentration (0.001 to 10 nmol/L) with largest number; 2 nights
Experimental: as §1, §2, §3

[3] = test system: BaF3 cells stably expressing FGFR (bovine); test: Cell proliferation-promoting effect on BaF3 cells stably expressing bovine FGFR; assay type: cell-based; settings: BaF3 with bovine FGFR; viable cells at the addition concentration (0.001 to 10 nmol/L) with largest number; 2 nights
Experimental: as §1, §2, §3

[4] = test system: BaF3 cells stably expressing FGFR (human); test: Cell proliferation-promoting effect on BaF3 cells stably expressing human FGFR; assay type: cell-based; settings: BaF3 with human FGFR; viable cells at the addition concentration (0.001 to 10 nmol/L) with largest number; 2 nights
Experimental: as §1, §2, §3

[5] = test system: hMSC-Human Mesenchymal Stem Cells; test: Effect of maintaining MSC undifferentiated potency (gene expression); assay type: cell-based
Experimental: The effect of maintaining mesenchymal stem cell (MSC) undifferentiated potency of the cyclic peptide complex was evaluated.
MSC was prepared in the same manner as in Example 7.
The evaluation of the effect of maintaining the MSC undifferentiated potency was performed by the following method. First, a culture medium (hereinafter, referred to as a custom culture medium) in which bFGF was removed from PRIME-XV MSC Expansion XSFM (FUJIFILM Irvine Scientific, Inc., 91149) was prepared. Next, Prime-XV Human Fibronectin (FUJIFILM Irvine Scientific, Inc., 31002) was dissolved in PBS (Fujifilm Wako Pure Chemical Corporation, 164-23551), 2 μg/cm^2 of the solution was added to a 12-well plate used for proliferation, and the 12-well plate was allowed to stand at room temperature for 3 hours to coat the 12-well plate with fibronectin. Thereafter, the MSCs subjected to the subculture were peeled using Tryple Express (Thermo, 12604-013), washed once with a custom culture medium, suspended in a custom culture medium in which a cyclic peptide complex or bFGF (R&D Systems, 3718-GMP) was diluted to final concentrations of 3 nmol/L and 1 nmol/L, and seeded on a 12-well plate coated with fibronectin. In this case, conditions in which the cyclic peptide complex and bFGF were not added as a negative control were prepared. After culturing at 37° C. (5% CO2) for 2 nights, the culture medium was replaced by removing the supernatant of the culture medium and adding the same amount of a culture medium prepared to have the same composition as the removed culture medium. After further culturing at 37° C. (5% CO2) for 2 nights, RNA was extracted using an RNeasy Plus Mini Kit (Qiagen, 74136) according to the manufacturer's protocol. […] The expression level of each gene was normalized by setting the expression level of the well to which 1 nmol/L bFGF was added to 1.

[6] = Molecular stability of cyclic peptide after reducing agent (DTT) treatment, LC; assay type: physicochemical; settings: residual rate after 12.6 mmol/L DTT aqueous solution, room temperature, 1 hour
Experimental: The molecular stability of the cyclic peptide was evaluated by analyzing an aqueous solution of the cyclic peptide treated with a reducing agent by liquid chromatography (LC).
The reducing agent treatment was performed under the following conditions based on the concentration of glutathione contained in the cells. 25 μL of a 0.2 mg/mL cyclic peptide aqueous solution was prepared, 58.8 μL of a 12.6 mmol/L DTT aqueous solution was added to the aqueous solution, and the mixture was incubated at room temperature for 1 hour to obtain an aqueous solution of the cyclic peptide treated with a reducing agent. The DTT aqueous solution was used by diluting a 1 mol/L (+-)-dithiothreitol (DTT) solution (FUJIFILM Wako Pure Chemical Corporation, 044-33871) with water. The total area of all the peaks in LC/MS of the cyclic peptide before the reducing agent treatment was set to 100%, and the proportion of the total area of all the peaks in LC/MS of the aqueous solution of the cyclic peptide treated with the reducing agent was determined to calculate the residual rate of the cyclic peptide, and the molecular stability was evaluated according to the following evaluation criteria. The evaluation result preferably satisfies the evaluation criteria A, B, or C.
• A: The residual rate of cyclic peptide is 90% or more. • B: The residual rate of the cyclic peptide is 70% or more and less than 90% • C: The residual rate of the cyclic peptide is 50% or more and less than 70% • D: The residual rate of the cyclic peptide is less than 50%
The LC used for the evaluation of molecular stability was set to the following conditions. • LC device: Prominence series (pump, column oven, autosampler, detector) (manufactured by Shimadzu Corporation) • Detector: photodiode array detector (SPD-M20A), measurement wavelength of 280 nm • Column: TSKgel ODS-100V, inner diameter of 4.6 mm×length of 150 mm, particle diameter of 5 μm (manufactured by Tosoh Corporation) • Eluent A: solution containing 0.1% trifluoroacetic acid as solute, and solvent is 100% water • Eluent B: solution containing 0.1% trifluoroacetic acid as solute, and solvent is 100% acetonitrile • Flow rate: 1.0 mL/min • Injection amount: 25 μL • Gradient: 20% to 50%: Eluent B (0 to 15 minutes), 100%: Eluent B (15 minutes) • Column temperature: 40° C.

[7] = test system: Recombinant Human FGFR 1 alpha (IIIc) Fc Chimera Protein; test: Binding affinity of chemically synthesized cyclic peptide to immobilized FGFR by SPR; settings: 10 nmol/L cyclic peptide, 25° C., binding amount per one molecule of FGFR, chemically synthesized product
Experimental: The binding affinity of the cyclic peptide to FGFR was evaluated using a surface plasmon resonance (SPR) method.
A CM5 sensor chip (Cytiva, 29149603) was set in Biacore-T200 (manufactured by Cytiva) which is a surface plasmon resonance device, and an HBS-EP buffer (Cytiva, BR100826) was added as a running buffer at a flow rate of 10 μL/min to equilibrate the flow channel. Next, 70 μL of a mixed aqueous solution of 0.2 mol/L 1-(3-dimethylaminopropyl)-3-ethylcarbodiimide (EDC) and 0.05 mol/L N-hydroxysuccinimide (NHS) was added to activate the sensor chip. Then, Recombinant Human FGFR 1 alpha (IIIc) Fc Chimera Protein CF (R&D systems, 658-FR-050) prepared at 50 nmol/L in an Acetate 4.5 buffer (Cytiva, BR100350) was added thereto to perform immobilization at about 5000 RU. Thereafter, the blocking treatment was performed with an ethanolamine solution. In addition, in another flow channel of the same sensor chip, blocking treatment was performed immediately after activation without immobilizing FGFR.
A cyclic peptide diluted to 10 nmol/L using HBS-EP was added to each flow channel of the FGFR-immobilized sensor chip produced above at 25° C. for 10 minutes, then HBS-EP was allowed to flow as a running buffer for 30 minutes, and the binding of the cyclic peptide to FGFR was measured. Thereafter, a regeneration treatment of removing the bound cyclic peptide was performed by repeating the flow of a regeneration liquid in which sodium chloride powder was dissolved in Glysine 1.5 (Cytiva, BR100354) to a final concentration of 0.15 mol/L for 1 minute in each flow channel twice. The binding amount of the cyclic peptide was evaluated from the difference between the measured value of Biacore-T200 in the flow channel in which FGFR was immobilized and the measured value of Biacore-T200 in the flow channel in which FGFR was not immobilated, in a case where a 10 nmol/L cyclic peptide was allowed to flow.
The binding amount of the cyclic peptide evaluated above was normalized to the binding amount of the cyclic peptide molecules per one molecule of FGFR using the molecular weights of the cyclic peptide and FGFR, and the binding affinity to FGFR was evaluated according to the following evaluation criteria. The evaluation result preferably satisfies the evaluation criteria A, B, or C.
• A: The binding amount is 0.7 molecules of the cyclic peptide/one molecule of FGFR or more. • B: The binding amount is 0.5 molecules of the cyclic peptide/one molecule of FGFR or more and less than 0.7 molecules of cyclic peptide/one molecule of FGFR. • C: The binding amount is 0.1 molecules of cyclic peptide/one molecule of FGFR or more and less than 0.5 molecules of cyclic peptide/one molecule of FGFR. • D: The binding amount is less than 0.1 molecules of the cyclic peptide/one molecule of FGFR.

[8] = 1 nmol/L bFGF versus condition without bFGF (negative control)

**Q.** For “391 (HCSYERLQFHGHEAPFRVKVGHCSYERLQFHGHEAPFRVKV; also: cyclic, closure not given here) [compound 391]”, which “Evaluation result of cell proliferative properties Avian” value [1] is on record?
**A.** The value was “A (The number of viable cells is 400 cells/well or more.)”.

**Q.** What about the “Evaluation result of cell proliferative properties Porcine” value [2] of the same substance?
**A.** The value was “B (The number of viable cells is 200 cells/well or more and less than 400 cells/well.)”.

**Q.** What about the “Evaluation result of cell proliferative properties Bovine” value [3] of the same substance?
**A.** The value was “A (The number of viable cells is 400 cells/well or more.)”.

**Q.** What about the “Evaluation result of cell proliferative properties Human” value [4] of the same substance?
**A.** The value was “A (The number of viable cells is 400 cells/well or more.)”.

**Q.** For “bFGF: basic fibroblast growth factor (R&D Systems, 3718-GMP)”, which “expression level of Nanog” value [5, 8] is on record?
**A.** Its value is “did not change substantially”.

**Q.** What about the “expression level of Oct4” value [5, 8] of the same substance?
**A.** The value was “did not change substantially”.

**Q.** What about the “expression level of Sox2” value ([5]; cyclic peptide complex 3 nmol/L or bFGF 1 nmol/L, normalized to 1 nmol/L bFGF = 1, bFGF compared with negative control) of the same substance?
**A.** Its value is “changed”.

**Q.** Which “Evaluation result of reductive stability” value [6] does the source give for “390 ([Orn]SYERLIFHGHEAPFWV[hCys]VKKK; bridge 1-18; not fully specified (residue 1, bridges); printed as (Orn(acetyl))-SYERLIFHGHEAPFWV-(Hcy)-VKKK) [compound 390]” here?
**A.** The value was “A (The residual rate of cyclic peptide is 90% or more.)”.

**Q.** And the “Evaluation result of binding affinity to FGFR” value [7]?
**A.** Its value is “C (The binding amount is 0.1 molecules of cyclic peptide/one molecule of FGFR or more and less than 0.5 molecules of cyclic peptide/one molecule of FGFR.)”.

**Q.** Which “Evaluation result of reductive stability” value [6] does the source give for “379 (HXSYERLQFHGHEAPFRVXVKKK; not fully specified; Description of Artificial Sequence: Cyclic peptide) [compound 379]” here?
**A.** Its value is “A (The residual rate of cyclic peptide is 90% or more.)”.

**Q.** What about the “Evaluation result of binding affinity to FGFR” value [7] of the same substance?
**A.** Its value is “A (The binding amount is 0.7 molecules of the cyclic peptide/one molecule of FGFR or more.)”.

**Q.** Which results are given for “378 (HKSYERLQFHGHEAPFRVXVKKK; not fully specified; Description of Artificial Sequence: Cyclic peptide) [compound 378]”?
**A.** Evaluation result of reductive stability [6]: A (The residual rate of cyclic peptide is 90% or more.); Evaluation result of binding affinity to FGFR [7]: A (The binding amount is 0.7 molecules of the cyclic peptide/one molecule of FGFR or more.)
